The values that follow come from patent US11603355B2, “Charged ion channel blockers and methods for use” (Nocion Therapeutics, Inc., priority 2019, dated 2023).

Molecules are shown by their SMILES.

The target of one series is T1, NaV1.7 (Homo sapiens, UniProt Q15858).
T1 construct: expressed in transfected cells; host or cells: HEK293 (tetracycline-inducible)
In words: Manual patch clamp, internal block of NaV1.7 current. Particulars: compound in internal solution, HEK293 cells, read-out: Nav1.7 Intracellular Inhibition; for inhibition at 10 µM: % inhibition at 10 μM test concentration; for inhibition at 3 µM: % inhibition at 3 μM test concentration. The class given is cell-based. The method, then:
Representative compounds of the invention were synthesized according to the described methods and tested for the ability to inhibit voltage-gated sodium channels.
NaV1.7 was expressed in HEK293 cells upon induction with tetracycline. Cells were cultured in DMEM containing 10% dialyzed Fetal Bovine Serum (VWR, Radnor, Pa.), 1% Glutamax (VWR, Radnor, Pa.), 1% Penicillin-Streptomycin (VWR, Radnor, Pa.), 100 mg/L Hygromycin (Thermo Fisher Scientific, Waltham, Mass. and 5 mg/L Blasticidin (Alfa Aesar, Haverhill, Mass.). Cells were grown and maintained at 37° C. in a humidified environment containing 10% CO2 in air. Cells were detached from the culture flask for passage and harvested using 0.05% Trypsin-EDTA (Thermo Fisher Scientific, Waltham, Mass.). To induce NaV1.7, cells were induced with tetracycline (0.1-1 μg/mL, IBI Scientific, Peosta, Iowa) the day before recording and plated onto 24-well plates. Cells were washed with DPBS (VWR, Radnor, Pa.), trypsinized and then triturated five times in 10 mL of growth media to break apart cell aggregates. For one 24-well plate, 2 mL of cell suspension was mixed with 23 mL of fresh growth media and 0.1-1 μg/mL tetracycline added. 1 ml of mixed media with cells was then added to each well of a 24-well plate, with a 12 mm coverslip already placed in the bottom of the well. Cells were then incubated in 37° C. and 10% CO2 overnight.
The intracellular solution contained the following (in mM) CsCl 135, NaCl 10, EGTA 10, HEPES 10, MgCl2 2, adjusted to pH 7.2 with CsOH. The external solution was a normal Ringer solution containing (in mM) NaCl 155, HEPES 10, glucose 10, KCl 3.5, CaCl2 1.5, MgCl2 1 adjusted to pH 7.4 with NaOH. CsCl is from Alfa Aesar, Haverhill, Mass. All other chemicals are from Sigma-Aldrich, St. Louis, Mo. In order to test the degree of internal block by test compounds the compounds were dissolved in internal solution at the indicated test concentration. […] In order to test the degree of external block by test compounds the compounds were dissolved in external solution at the indicated test concentration.
18-24 hours after cells were induced with tetracycline, coverslips were placed into a chamber filled with Normal Ringer solution at room temperature and the chamber placed on a microscope. Pipettes were pulled from borosilicate glass on a P97 puller (Sutter Instrument, Novato, Calif.) and polished with a MF-830 Microforge (Narishige International USA, Inc., Amityville, N.Y.) to have a resistance of 1.5-2.5 MΩ when filled with CsCl internal solution at room temperature. Healthy cells (those that are round and translucent with no visible blemishes) were chosen for seal formation. A seal was formed between the pipette and the cell, and a brief pulse of suction was used to “break in” and establish the whole-cell configuration. The membrane potential was held at −100 mV before the voltage protocol began. Only cells with series resistance between 1.5-5 MΩ were retained for analysis. The voltage protocol was as follows: Cells were held at −100 mV for 12 ms followed by a hyperpolarizing step to −105 mV for 12 ms to monitor the leak. Cells were then stepped back to −100 mV for 40 ms. Cells were then depolarized to −20 mV for 10 ms and then returned to −100 mV for 26 ms.
Once the recording was started, the voltage protocol was run at 30 second intervals for 5 minutes to get a stable baseline. This was followed by four 30-second periods of 5 Hz stimulation of the same voltage protocol separated by 1 minute of rest which was then followed by 0.33 Hz stimulation after the last train. Currents were recorded using PatchMaster software with Heka EPC10 (HEKA Electronics, Lambrecht, Germany). Only cells with inward current amplitudes at −20 mV between 400 pA and 4 nA were accepted. In addition, cells having leak currents greater than 10% of their current amplitudes were discarded. […]
For orientation: In patch-clamp work, channel activity is measured electrically.

A short description of series [1]: PAMPA membrane permeability assay. It is filed as in vitro ADME. Particulars: permeability coefficient, pH 7.4 buffer, GIT lipid, 4 hours incubation. The procedure:
The PAMPA assay (pION, Inc., Woburn Mass.) was used to determine the ability of compounds of the invention to cross an artificial lipid membrane by passive diffusion. Test compounds were dissolved in DMSO (10 mM) and diluted 200-fold in buffer (pION Inc., pH 7.4) to provide 50 uM stock solutions. Buffer (150 μL) was added to a UV blank plate and stock solutions (150 μL) were transferred to a UV reference plate. The blank and reference spectrum were read using a spectrophotometer. Stock solutions (200 μL) were added to the donor plate of the PAMPA sandwich plate and an accept plate painted with GIT lipid (pION Inc, 5) was placed on top. Buffer (200 μL) was added to the acceptor plate and the PAMPA sandwich plate was incubated for 4 hours. Aliquots (150 μL) from the acceptor plate were added to a UV plate and read as acceptor spectrum. Aliquots (150 μL) of the donor solutions were added to a UV analysis plate and read as donor spectrum. The permeability coefficient of test compounds was calculated using PAMPA Explorer™ software (version 3.5.0.4) based on the AUC of the reference plate, the donor plate, and the acceptor plate.
The PAMPA permeability results (10^−6 cm/s) of representative compounds are reported as “+” (<0.1 10^−6 cm/s), “++” (0.1-2.0 10^−6 cm/s), “+++” (2.0-10.010^−6 cm/s) or “++++” (>10.0 10^−6 cm/s).
On the technique in general: The PAMPA barrier holds no transporters, so it reflects passive diffusion.

T1 sequence (Q15858 whole entry): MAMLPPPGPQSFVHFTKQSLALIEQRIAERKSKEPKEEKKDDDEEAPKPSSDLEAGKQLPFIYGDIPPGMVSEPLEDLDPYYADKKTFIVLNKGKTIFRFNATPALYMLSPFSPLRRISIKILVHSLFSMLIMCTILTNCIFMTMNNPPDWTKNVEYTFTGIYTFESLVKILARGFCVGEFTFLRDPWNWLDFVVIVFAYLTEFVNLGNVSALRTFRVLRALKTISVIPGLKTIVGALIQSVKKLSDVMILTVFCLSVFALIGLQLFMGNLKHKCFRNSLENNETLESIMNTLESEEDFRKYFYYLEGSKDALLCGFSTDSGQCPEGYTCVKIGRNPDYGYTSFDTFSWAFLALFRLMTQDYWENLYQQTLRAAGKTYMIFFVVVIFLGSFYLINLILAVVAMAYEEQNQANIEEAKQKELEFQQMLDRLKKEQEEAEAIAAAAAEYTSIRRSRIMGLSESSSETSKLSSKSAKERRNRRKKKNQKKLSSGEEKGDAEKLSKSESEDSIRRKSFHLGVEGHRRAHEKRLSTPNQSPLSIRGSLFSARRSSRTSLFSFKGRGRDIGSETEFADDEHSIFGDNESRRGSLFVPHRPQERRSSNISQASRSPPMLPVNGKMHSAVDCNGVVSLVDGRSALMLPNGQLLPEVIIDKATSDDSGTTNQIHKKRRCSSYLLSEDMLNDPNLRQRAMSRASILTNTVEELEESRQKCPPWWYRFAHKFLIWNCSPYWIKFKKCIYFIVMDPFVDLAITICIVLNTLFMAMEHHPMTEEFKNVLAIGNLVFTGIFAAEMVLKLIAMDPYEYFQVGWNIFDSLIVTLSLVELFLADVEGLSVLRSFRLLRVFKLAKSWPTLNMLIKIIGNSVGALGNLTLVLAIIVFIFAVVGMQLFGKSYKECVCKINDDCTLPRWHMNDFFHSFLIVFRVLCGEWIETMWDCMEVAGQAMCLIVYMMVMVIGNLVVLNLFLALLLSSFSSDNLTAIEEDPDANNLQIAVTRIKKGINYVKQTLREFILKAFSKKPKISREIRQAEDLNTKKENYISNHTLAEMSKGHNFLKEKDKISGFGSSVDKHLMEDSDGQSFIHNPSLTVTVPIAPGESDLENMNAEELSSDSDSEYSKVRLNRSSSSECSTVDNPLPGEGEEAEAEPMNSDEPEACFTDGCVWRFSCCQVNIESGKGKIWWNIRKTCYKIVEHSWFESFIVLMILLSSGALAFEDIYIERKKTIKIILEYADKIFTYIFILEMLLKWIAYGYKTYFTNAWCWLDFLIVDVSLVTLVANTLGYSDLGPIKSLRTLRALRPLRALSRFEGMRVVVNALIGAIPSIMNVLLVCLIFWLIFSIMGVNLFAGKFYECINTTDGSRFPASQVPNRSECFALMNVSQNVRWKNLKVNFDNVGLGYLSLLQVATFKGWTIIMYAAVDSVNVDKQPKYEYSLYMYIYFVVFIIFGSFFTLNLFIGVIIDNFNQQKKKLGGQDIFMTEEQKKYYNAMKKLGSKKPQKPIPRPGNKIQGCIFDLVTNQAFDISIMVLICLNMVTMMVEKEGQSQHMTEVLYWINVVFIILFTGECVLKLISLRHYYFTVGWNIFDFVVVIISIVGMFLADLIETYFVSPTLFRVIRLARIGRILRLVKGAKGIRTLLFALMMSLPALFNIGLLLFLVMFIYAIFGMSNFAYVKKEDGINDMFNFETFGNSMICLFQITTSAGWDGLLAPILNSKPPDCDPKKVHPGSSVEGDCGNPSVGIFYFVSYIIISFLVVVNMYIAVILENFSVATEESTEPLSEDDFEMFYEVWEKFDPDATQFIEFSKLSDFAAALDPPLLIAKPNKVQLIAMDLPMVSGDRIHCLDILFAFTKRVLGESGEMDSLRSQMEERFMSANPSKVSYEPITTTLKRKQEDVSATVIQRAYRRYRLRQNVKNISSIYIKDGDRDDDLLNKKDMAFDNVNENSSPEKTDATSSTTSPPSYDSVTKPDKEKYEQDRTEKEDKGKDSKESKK

By inhibition is commonly meant the relative decrease from the control value, in per cent. In the case of `CCC(C(=O)Nc1c(C)cccc1C)[N+]1(Cc2cccc(Cl)c2)CCCCC1` (stereo not drawn) [Compound 11A], the inhibition at 10 µM at NaV1.7 is over 95%.
Same read-out and setting: the value for `CCCCN(C(=O)OC(C)(C)C)c1ccc(NC(=O)C[N+]2(Cc3ccccc3)CCCCCC2)cc1` [Compound 40A, 1-benzyl-1-(2-((4-((tert-butoxycarbonyl) (butyl)amino)phenyl)amino)-2-oxoethyl) azepan-1-ium bromide] was 40 to 70%.
Consider `Cc1cccc(C)c1NC(=O)C[N+](C)(C)Cc1ccccc1` [Compound 2A, N-benzyl-2-((2,6-dimethylphenyl)amino)-N,N-dimethyl-2-oxoethan-1-aminium bromide], for which, on NaV1.7, the inhibition at 10 µM is 40 to 70%. Also, the “PAMPA (10^−6 cm/s)” value in series [1] is listed as “+ (“+” (<0.1 10^−6 cm/s))”.
In the case of `CCc1ccc(C[N+]2(C(CC)C(=O)Nc3c(C)cccc3C)CCCCC2)cc1` (stereo not drawn) [Compound 19A], the inhibition at 10 µM at NaV1.7 lay within 40 to 70%. Moreover, the “PAMPA (10^−6 cm/s)” value in series [1] is on record as “+ (“+” (<0.1 10^−6 cm/s))”.
For `CCC(C(=O)Nc1c(C)cccc1C)[N+]1(Cc2cccc(F)c2)CCCCC1` (stereo not drawn) [Compound 8A], in that order: 70 to 95% and “+ (“+” (<0.1 10^−6 cm/s))”.
As for `CCC(C(=O)Nc1c(C)cccc1C)[N+]1(Cc2ccc(C#N)cc2)CCCCC1` (stereo not drawn) [Compound 13A], the inhibition at 10 µM on NaV1.7 was 70 to 95%. Also, the “PAMPA (10^−6 cm/s)” value in series [1] was “+ (“+” (<0.1 10^−6 cm/s))”.
On to `CCC(C(=O)Nc1c(C)cccc1C)[N+]1(Cc2ccccc2Cl)CCCCC1` (stereo not drawn) [Compound 12A], for which the inhibition at 10 µM on NaV1.7 was over 95%. The “PAMPA (10^−6 cm/s)” value in series [1] was “+ (“+” (<0.1 10^−6 cm/s))”.
On to `CCC(C(=O)Nc1c(C)cccc1C)[N+]1(Cc2cccc(C#N)c2)CCCCC1` (stereo not drawn) [Compound 14A], for which the inhibition at 10 µM at NaV1.7 lay within 70 to 95%. Further, in series [1], the “PAMPA (10^−6 cm/s)” value is recorded as “+ (“+” (<0.1 10^−6 cm/s))”.
Turning to `CCC(C(=O)Nc1c(C)cccc1C)[N+]1(Cc2ccccc2OC)CCCCC1` (stereo not drawn) [Compound 24A, 1-(1-((2,6-dimethylphenyl)amino)-1-oxobutan-2-yl)-1-(2-methoxybenzyl) piperidin-1-ium bromide], on NaV1.7, the inhibition at 3 µM is over 90% and the inhibition at 10 µM is over 95%.
`CCC(C(=O)Nc1c(C)cccc1C)[N+]1(Cc2ccc(OC)cc2)CCCCC1` (stereo not drawn) [Compound 22A]: at NaV1.7, the inhibition at 3 µM lay in the range of 70 to 90% and the inhibition at 10 µM was in the range of 70 to 95%.
Take `Cc1cccc(C)c1N1CCCC([N+]2(Cc3ccccc3)CCCCCC2)C1=O` (stereo not drawn) [Compound 93A]: the inhibition at 3 µM at NaV1.7 is 70 to 90%. For the same compound, the “PAMPA (10^−6 cm/s)” value in series [1] is “+ (“+” (<0.1 10^−6 cm/s))”.
Consider `Cc1cccc(C)c1NC(=O)C[N+]1(Cc2ccccc2)CCCCCCC1.[Br-]` [Compound 31A, 1-benzyl-1-(2-((2,6-dimethylphenyl)amino)-2-oxoethyl)azocan-1-ium bromide], for which, on NaV1.7, the inhibition at 3 µM is over 90% and the inhibition at 10 µM was over 95%. Also, the “PAMPA (10^−6 cm/s)” value in series [1] was “+ (“+” (<0.1 10^−6 cm/s))”.
Turning to `CCC(C(=O)Nc1c(C)cccc1C)[N+]1(Cc2ccsc2)CCCCC1` (stereo not drawn) [Compound 26A], the inhibition at 10 µM on NaV1.7 is 70 to 95%. In addition, in series [1], the “PAMPA (10^−6 cm/s)” value is reported as “+ (“+” (<0.1 10^−6 cm/s))”.
As to `CCC(C(=O)Nc1c(C)cccc1C)[N+]1(Cc2cnn(C)c2)CCCCC1.[Br-]` (stereo not drawn) [Compound 34A, 1-(1-((2,6-dimethylphenyl)amino)-1-oxobutan-2-yl)-1-((1-methyl-1H-pyrazol-4-yl)methyl) piperidin-1-ium bromide], at NaV1.7, the inhibition at 3 µM was 70 to 90%. In addition, the “PAMPA (10^−6 cm/s)” value in series [1] was “+ (“+” (<0.1 10^−6 cm/s))”.
On to `CCC(C(=O)Nc1c(C)cccc1C)[N+]1(Cc2ccccc2)CCCCCC1.[Br-]` (stereo not drawn) [Compound 30A, 1-benzyl-1-(1-((2,6-dimethylphenyl)amino)-1-oxobutan-2-yl) azepan-1-ium bromide], for which, at NaV1.7, the inhibition at 3 µM is over 90% and the inhibition at 10 µM was over 95%. Further, in series [1], the “PAMPA (10^−6 cm/s)” value is “+ (“+” (<0.1 10^−6 cm/s))”.
For `CCc1cccc(C[N+]2(C(CC)C(=O)Nc3c(C)cccc3C)CCCCC2)c1` (stereo not drawn) [Compound 20A], in that order: over 90%, over 95% and “+ (“+” (<0.1 10^−6 cm/s))”.
For the compound `CCC(C(=O)Nc1c(C)cccc1C)[N+]1(Cc2cnc(C)s2)CCCCC1` (stereo not drawn) [Compound 25A], the inhibition at 10 µM at NaV1.7 lay in the range of 40 to 70%.
In the case of `CCC(C(=O)Nc1c(C)cccc1C)[N+]1(Cc2cccc(O)c2)CCCCC1` (stereo not drawn) [Compound 29A, 1-(1-((2,6-dimethylphenyl)amino)-1-oxobutan-2-yl)-1-(3-hydroxybenzyl) piperidin-1-ium carbonate], on NaV1.7, the inhibition at 3 µM was over 90% and the inhibition at 10 µM was in the range of 70 to 95%.
In the case of `CCC(C(=O)Nc1c(C)cccc1C)[N+]1(Cc2ccc(F)cc2)CCCCC1` (stereo not drawn) [Compound 7A], the inhibition at 10 µM on NaV1.7 fell in the range of 70 to 95%. Further, in series [1], the “PAMPA (10^−6 cm/s)” value is reported as “+ (“+” (<0.1 10^−6 cm/s))”.
`CCC(C(=O)Nc1c(C)cccc1C)[N+]1(Cc2ccccc2O)CCCCC1` (stereo not drawn) [Compound 28A, 1-(1-((2,6-dimethylphenyl)amino)-1-oxobutan-2-yl)-1-(2-hydroxybenzyl) piperidin-1-ium 2,2,2-trifluoroacetate]: on NaV1.7, the inhibition at 3 µM is under 40% and the inhibition at 10 µM fell in the range of 40 to 70%.
Take `CCC(C(=O)Nc1c(C)cccc1C)[N+]1(Cc2cc(C)on2)CCCCC1` (stereo not drawn) [Compound 27A]: at NaV1.7, the inhibition at 10 µM lay in the range of 70 to 95%. Besides, in series [1], the “PAMPA (10^−6 cm/s)” value is listed as “+ (“+” (<0.1 10^−6 cm/s))”.
Consider `CC[N+](CC)(CC(=O)Nc1c(C)cccc1C)Cc1ccccc1` [Compound 1A, N-benzyl-2-((2,6-dimethylphenyl)amino)-N,N-diethyl-2-oxoethan-1-aminium bromide], for which, at NaV1.7, the inhibition at 10 µM lay within 70 to 95%.
On to `CCCCNc1ccc(NC(=O)C[N+]2(Cc3ccccc3)CCCCC2)cc1.O=C([O-])O` [Compound 42A, 1-benzyl-1-(2-((4-(butylamino)phenyl)amino)-2-oxoethyl) piperidin-1-ium carbonate], for which, in series [1], the “PAMPA (10^−6 cm/s)” value was “++ (“++” (0.1-2.0 10^−6 cm/s))”.
On to `CCCCNc1cc(C)c(NC(=O)C(CC)[N+]2(Cc3ccccc3)CCCCC2)c(C)c1` (stereo not drawn) [Compound 43A, 1-benzyl-1-(1-((4-(butylamino)-2,6-dimethylphenyl)amino)-1-oxobutan-2-yl) piperidin-1-ium carbonate], for which the inhibition at 10 µM at NaV1.7 fell in the range of 70 to 95%.
